The results in this text go back to patent publication US10308649B2, “Compounds and methods to suppress autoimmune response” (Oregon State University, priority 2014, dated 2019).

Data set [1] can be described thus: Clinical chemistry profile from toxicology screen of NOD mice. The note with it: 20 weeks of age. It counts as in vivo, mouse. The source says:
The results listed in Table 1 illustrate an absence of clinical signs of toxicity after prolonged treatment with AHRL1. Table 1 lists the results of a clinical chemistry profile from a toxicology screen of the AHRL1 treated, TCDD treated, and vehicle treated mice. The clinical chemistry panel includes tests for substances in the blood that have biological functions, metabolites or waste products, and substances that indicate cell damage or disease. The concentrations of the substances listed in Table 1 were measured at 20 weeks of age. The concentrations are reported as milligrams per deciliter (mg/dl), grams per deciliter (g/dl), units per liter (U/L), or milli equivalents per liter (mEq/L).
FIGS. 18a-18r show the clinical chemistry profile from a toxicology screen for three groups: AHRL1 treated mice, vehicle treated mice, and untreated mice. For the test group, the mice were treated with AHRL1. The vehicle given was the carrier for the AHRL1 compound. The carrier included 30% DMSO, 20% Cremaphor, and 50% Peceol. The mice were tested after 12 weeks of exposure. The clinical chemistry panel includes tests for substances in the blood that have biological functions, metabolites or waste products, and substances that indicate cell damage or disease.

The target in a further data set is T1, AhR (Mus musculus, UniProt P30561).
T1 sequence (P30561 10-848): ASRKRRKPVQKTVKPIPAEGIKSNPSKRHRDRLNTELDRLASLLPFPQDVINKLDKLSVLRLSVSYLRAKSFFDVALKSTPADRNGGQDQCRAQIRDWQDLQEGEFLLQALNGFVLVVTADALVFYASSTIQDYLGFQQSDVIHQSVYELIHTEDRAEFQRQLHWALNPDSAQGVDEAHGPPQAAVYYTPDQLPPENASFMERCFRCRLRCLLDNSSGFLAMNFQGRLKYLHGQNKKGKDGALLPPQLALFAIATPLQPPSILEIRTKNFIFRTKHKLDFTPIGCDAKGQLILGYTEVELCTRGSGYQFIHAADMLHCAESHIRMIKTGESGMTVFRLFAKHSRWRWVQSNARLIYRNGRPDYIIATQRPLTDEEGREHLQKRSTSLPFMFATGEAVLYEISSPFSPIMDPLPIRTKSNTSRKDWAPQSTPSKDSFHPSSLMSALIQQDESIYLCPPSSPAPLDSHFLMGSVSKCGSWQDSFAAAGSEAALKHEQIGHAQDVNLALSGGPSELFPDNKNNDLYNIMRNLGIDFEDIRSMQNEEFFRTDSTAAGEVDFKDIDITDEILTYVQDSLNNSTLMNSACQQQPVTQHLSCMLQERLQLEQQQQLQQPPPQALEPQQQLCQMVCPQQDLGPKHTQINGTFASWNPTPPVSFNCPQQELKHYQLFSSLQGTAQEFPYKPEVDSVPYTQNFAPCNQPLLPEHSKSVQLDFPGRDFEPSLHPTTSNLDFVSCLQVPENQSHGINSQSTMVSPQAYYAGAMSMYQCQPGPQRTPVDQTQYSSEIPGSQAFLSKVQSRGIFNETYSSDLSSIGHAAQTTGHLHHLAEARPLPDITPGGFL
The data set can be described thus: Competitive inhibition of [3H] 3-MC binding to AhR. The source says:
3-MC binding to AhR. […] 3-methylcholanthrene (3-MC) to AhR.

A further data set concerns donor CD4+ T cells. In words: Acute graft versus host model: Treg phenotype of alloactivated donor CD4+ T cells. It is filed as in vivo, mouse. The following applies: B6D2F1 hosts, day 2. The protocol:
FIGS. 14a-14i show AHRL1 induces an AhR-dependent Treg phenotype by a mechanism that is mediated by the AhR in donor CD4+ T cells. The AhR-induced Tregs were identified as the CD4+CD25+CTLA-4+CD62L^low population of T cells. To determine if AHRL1 induced changes in donor CD4+ T cells, AHRL1 was compared with TCDD and the vehicle. On day 0, B6D2F1 host mice in groups of 5 were injected with CFSE-labeled C57BL/6 (H-2^b/b) T cells and given 15 mg/kg of AHRL1, 15 μg/kg of TCDD, or vehicle by i.p. injection. At 24 hours, an additional dose of 7 mg/kg of AHRL1 or vehicle was given. Mice that were treated with TCDD at the time of donor cell transfer were used as positive controls. Splenocytes were isolated on day 2 for phenotypic analysis of the alloresponsive (CFSE-diluted) donor CD4+ T cells. Splenocytes were harvested from the host mice and the CD4+ T cells were identified by flow cytometry.
On day 0, B6D2F1 host mice in groups of 5 were injected with donor T cells obtained from AhR^+/+ or AhR-deficient (AhR^−/−) C57BL/6 mice. Host mice were treated with 2 mg/kg of AHRL1 or vehicle immediately following donor cell transfer and again at 24 hours. […] Thus, the AhR in the CD4+ T cell is the primary target driving the AhR-Treg phenotype.
On day 0, B6D2F1 host mice in groups of 3-5 were injected with C57BL/6 T cells. Mice were immediately treated with 0 mg/kg, 0.4 mg/kg, 2 mg/kg, or 10 mg/kg of AHRL1 and again on day 1. On day 2, expression of markers associated with the AhR-Treg phenotype increased as the dose of AHRL1 increased. Further, dosing generally correlated with degree of activation of AhR as reflected by CYP1A1, CYP1B1, and AHRR expression in lymph nodes from the same mice. The asterisk (*) indicates a p-value of 0.05 relative to vehicle treatment.
FIGS. 16c and 16d show expression of phenotypic markers, CD25+ICOS+CD62L^low and CD25+CTLA-4+, associated with AhR-Tregs in mice treated with AHRL1. Host mice were treated with 10 mg/kg of AHRL1, 11-Cl-BBQ analog, or vehicle on day 0 and day 1 following donor cell transfer. On day 2, the alloactivated CD4+ donor T cells were identified based on CFSE dilution. The percentage of donor cells in each group expressing the Treg markers were derived from flow histograms. The data represents mean±SEM of 5 mice per treatment. […] Analog 1 is statistically different from AHRL1 and analog 4 (p-value=0.05). […], analog 1, and analog 4 are shown to be AhR ligands that are capable of inducing Tregs in vivo. Accordingly, analogs 1 and 4 are expected to have a similar therapeutic effect in a subject as AHRL1 by suppressing an autoimmune response. Additionally, analog 6, analog 7, and other analogs of 11-Cl-BBQ, that are found to be active AhR ligands using the disclosed screening method, are expected to induce Tregs and suppress CTL to provide treatment and/or prevention of immune-mediated diseases.

As a reminder, the IC50 is the concentration that inhibits the measured activity by half. Consider `Clc1cc2c(cc1Cl)Oc1cc(Cl)c(Cl)cc1O2` [TCDD, 2,3,7,8-tetrachlorodibenzo-p-dioxin], for which, in data set [1], the “Alanine Aminotransferase (ALT)” value worked out at 24.0 ± 2.5 U/L, the Albumin was determined as 3.4 ± 0.1 g/dL, the “Alkaline Phosphatase” value was 80.0 ± 14.7 U/L and the “Anion Gap” value is on record as 34.0 ± 1.2 mEq/L. In data set [1], the “Bicarbonate (tCO2)” value is 18.6 ± 1.4 mEq/L; the “Bilirubin, Total” value was 0.43 ± 0.64 mg/dL; the “Blood Urine Nitrogen (BUN)” value is 20.0 ± 2.7 mg/dL; the Calcium turned out to be 10.8 ± 0.4 mg/dL. Also, in data set [1], the Chloride is given as 109.5 ± 1.7 mEq/L, the Cholesterol came to 91.9 ± 5.1 mg/dL, the Creatinine was 0.3 ± 0.1 mg/dL and the “Creatinine Kinase (CK)” value was 398.3 ± 248.7 U/L. Besides, in data set [1], the “Gamma-glutamyl transferase (GGT)” value is 0.0 ± 0.0 U/L, the Phosphorous came to 8.2 ± 1.2 mg/dL, the Potassium is 9.7 ± 0.4 mEq/L and the Sodium came to 151.9 ± 2.4 mEq/L. Further, the “Total Protein” value in data set [1] was 5.6 ± 0.2 g/dL. The IC50 on AhR was 4.7 nM. In addition, the “total number of alloactivated CD4+CD25+ T cells co-expressing CTLA-4+, ICOS, low CD62L” value with donor CD4+ T cells is listed as “increased”. Moreover, the “expression of ICOS on alloactivated donor CD4+ T cells” value in the data set on donor CD4+ T cells (AHRL1 15 mg/kg then 7 mg/kg, TCDD 15 μg/kg i.p.) is reported as “significantly increased”.
